We go through 2 molecules from paper PMC7462985, “Inhibitors of BRAF dimers using an allosteric site” (Nature Communications, 2020).

Each structure is given as a SMILES string.

For one series, the system named is EPHA. Kind of series: KINOMEscan scanEDGE binding. The arrangement: species or system human. Particulars: KinomeEDGE scan, compound at 1 μΜ.
Another series concerns the target T1, ABL1 (Homo sapiens, UniProt P00519).
T1 construct: purchased Invitrogen (SelectScreen service)
Kind of series: SelectScreen kinase activity assay. Format: biochemical. Particulars: 100 μM ATP.

The target of a further series is T2, ABL1-nonphosphorylated (Homo sapiens, UniProt P00519).
T2 construct: purchased Eurofins/DiscoverX KINOMEscan (scanEDGE panel)
Kind of series: KINOMEscan scanEDGE binding. Particulars: KinomeEDGE scan, compound at 1 μΜ.

In another series the target is T3, ABL1-phosphorylated (Homo sapiens, UniProt P00519).
T3 construct: purchased Eurofins/DiscoverX KINOMEscan (scanEDGE panel)
Briefly: KINOMEscan scanEDGE binding. Particulars: KinomeEDGE scan, compound at 1 μΜ.

Series [1] concerns the target T4, ABL1(T315I)-phosphorylated (Homo sapiens, UniProt P00519, T315I).
T4 construct: purchased Eurofins/DiscoverX KINOMEscan (scanEDGE panel)
Briefly: KINOMEscan scanEDGE binding. Conditions: KinomeEDGE scan, compound at 1 μΜ.

Series [2] concerns the target T5, BRAF^V600E (Homo sapiens, UniProt P15056, V600E). Kind of series: SelectScreen Z'-LYTE kinase activity assay. Format: biochemical. On the set-up: purchased Invitrogen (SelectScreen service). Particulars: 100 μM ATP.
Procedure: (§1) BRAF kinase assays were performed using the Z’-LYTE™ enzymatic assay (Invitrogen, USA). […] Titrations were performed using a 1:3 dilution. Assays were performed using SelectScreen (Invitrogen).
The next series concerns the target T6, ACVR1B (Homo sapiens, UniProt P36896).
T6 construct: purchased Eurofins/DiscoverX KINOMEscan (scanEDGE panel)
Kind of series: KINOMEscan scanEDGE binding. Particulars: KinomeEDGE scan, compound at 1 μΜ.

In the next series the target is KIT (Homo sapiens, UniProt P10721). Briefly: SelectScreen kinase activity assay. Format: biochemical. Particulars: 100 μM ATP. On the set-up: purchased Invitrogen (SelectScreen service).
A further series has as its target T7, BRAF^WT (Homo sapiens, UniProt P15056).
T7 construct: purchased Invitrogen (SelectScreen service)
Briefly: SelectScreen Z'-LYTE kinase activity assay. It is filed as biochemical. Particulars: 100 μM ATP.

In series [3] the target is T8, FGFR1 (Homo sapiens, UniProt P11362). Briefly: SelectScreen kinase activity assay. It is filed as biochemical. The arrangement: purchased Invitrogen (SelectScreen service).
Procedure: as §1
The target in the next series is T9, PDFGRα (Homo sapiens, UniProt P16234).
T9 construct: purchased Invitrogen (SelectScreen service)
Briefly: SelectScreen kinase activity assay. Particulars: 100 μM ATP. It is filed as biochemical.

Series [4] deals with BRAF^V600E monomers in A375 cells (Homo sapiens, UniProt P15056, V600E). Kind of series: Cellular Thermal Shift Assay (CETSA). Particulars: 20 μΜ compound, versus DMSO. It is filed as cell-based.
Procedure: The samples were incubated for 1 h at room temperature, rotating. After compound incubation, samples (50 μL each) were transferred in PCR tubes and incubated for 3 min in a temperature gradient produced with a C1000 thermal cycler (Bio-Rad). Cells were immediately lysed by repeating freeze-thaw cycles (3× times) in liquid nitrogen. […] Equal volumes of supernatants were run on 15-well 4–12% NuPAGE SDS-PAGE gels (Invitrogen), and analyzed by western blot. GAPDH, which is temperature insensitive under these conditions, served as loading control. Results were quantitated by densitometric analysis as described above.
In another series the target is T10, CDK7 (Homo sapiens, UniProt P50613).
T10 construct: purchased Eurofins/DiscoverX KINOMEscan (scanEDGE panel)
Kind of series: KINOMEscan scanEDGE binding. Conditions: KinomeEDGE scan, compound at 1 μΜ.

The target of a further series is T11, CDK9 (Homo sapiens, UniProt P50750).
T11 construct: purchased Eurofins/DiscoverX KINOMEscan (scanEDGE panel)
Briefly: KINOMEscan scanEDGE binding. Conditions: KinomeEDGE scan, compound at 1 μΜ.

In series [5] the target is T5, BRAF^V600E. Briefly: BRAF kinase activity assay (western blot). Format: biochemical. On the set-up: purchased Invitrogen (SelectScreen service).
Procedure: (§2) Kinase activity assays were performed using BRAF Kinase Assay Kit (#17-359), CRAF Kinase Assay Kit (#17-360) and MAP Kinase/Erk Assay Kit (#17-191), following protocols by the provider (Millipore) with some modifications. In brief, BRAF and CRAF, and MEK1 recombinant proteins were incubated for 15 min with inhibitors, then corresponding substrates were added and incubated for 30 min at 30 °C and assayed via western blot.
The next series addresses T12, AXL (Homo sapiens, UniProt P30530).
T12 construct: purchased Eurofins/DiscoverX KINOMEscan (scanEDGE panel)
Kind of series: KINOMEscan scanEDGE binding. Conditions: KinomeEDGE scan, compound at 1 μΜ.

The target of a further series is T13, EGFR(L858R) (Homo sapiens, UniProt P00533, L858R).
T13 construct: purchased Eurofins/DiscoverX KINOMEscan (scanEDGE panel)
Briefly: KINOMEscan scanEDGE binding. Conditions: KinomeEDGE scan, compound at 1 μΜ.

The conditions of series [6]: standard of care dose for CML; cited from earlier work.
Series [7] has as its target T14, TYK2(JH1domain-catalytic) (Homo sapiens, UniProt P29597).
T14 construct: TYK2(JH1domain-catalytic); purchased Eurofins/DiscoverX KINOMEscan (scanEDGE panel)
Briefly: KINOMEscan scanEDGE binding. Conditions: KinomeEDGE scan, compound at 1 μΜ.

The next series has as its target T15, CRAF (Homo sapiens, UniProt P04049).
T15 construct: purchased Millipore #17-360
Briefly: CRAF kinase activity assay (western blot). Format: biochemical.

In series [8] the target is T8, FGFR1. Briefly: KINOMEscan scanEDGE binding. The arrangement: purchased Eurofins/DiscoverX KINOMEscan (scanEDGE panel). Conditions: KinomeEDGE scan, compound at 1 μΜ.
The target in a further series is T16, MKNK2 (Homo sapiens, UniProt Q9HBH9).
T16 construct: purchased Eurofins/DiscoverX KINOMEscan (scanEDGE panel)
Briefly: KINOMEscan scanEDGE binding. Particulars: KinomeEDGE scan, compound at 1 μΜ.

In another series the target is T17, p38-alpha (Homo sapiens, UniProt Q16539).
T17 construct: purchased Eurofins/DiscoverX KINOMEscan (scanEDGE panel)
Briefly: KINOMEscan scanEDGE binding. Conditions: KinomeEDGE scan, compound at 1 μΜ.

The target in another series is T18, EPHA2 (Homo sapiens, UniProt P29317).
T18 construct: purchased Eurofins/DiscoverX KINOMEscan (scanEDGE panel)
Briefly: KINOMEscan scanEDGE binding. Conditions: KinomeEDGE scan, compound at 1 μΜ.

A further series addresses T19, EGFR (Homo sapiens, UniProt P00533).
T19 construct: purchased Eurofins/DiscoverX KINOMEscan (scanEDGE panel)
Kind of series: KINOMEscan scanEDGE binding. Conditions: KinomeEDGE scan, compound at 1 μΜ.

In series [9] the target is T20, JAK2(JH1domain-catalytic) (Homo sapiens, UniProt O60674).
T20 construct: JAK2(JH1domain-catalytic); purchased Eurofins/DiscoverX KINOMEscan (scanEDGE panel)
Briefly: KINOMEscan scanEDGE binding. Particulars: KinomeEDGE scan, compound at 1 μΜ.

T8 sequence (P11362 22-822): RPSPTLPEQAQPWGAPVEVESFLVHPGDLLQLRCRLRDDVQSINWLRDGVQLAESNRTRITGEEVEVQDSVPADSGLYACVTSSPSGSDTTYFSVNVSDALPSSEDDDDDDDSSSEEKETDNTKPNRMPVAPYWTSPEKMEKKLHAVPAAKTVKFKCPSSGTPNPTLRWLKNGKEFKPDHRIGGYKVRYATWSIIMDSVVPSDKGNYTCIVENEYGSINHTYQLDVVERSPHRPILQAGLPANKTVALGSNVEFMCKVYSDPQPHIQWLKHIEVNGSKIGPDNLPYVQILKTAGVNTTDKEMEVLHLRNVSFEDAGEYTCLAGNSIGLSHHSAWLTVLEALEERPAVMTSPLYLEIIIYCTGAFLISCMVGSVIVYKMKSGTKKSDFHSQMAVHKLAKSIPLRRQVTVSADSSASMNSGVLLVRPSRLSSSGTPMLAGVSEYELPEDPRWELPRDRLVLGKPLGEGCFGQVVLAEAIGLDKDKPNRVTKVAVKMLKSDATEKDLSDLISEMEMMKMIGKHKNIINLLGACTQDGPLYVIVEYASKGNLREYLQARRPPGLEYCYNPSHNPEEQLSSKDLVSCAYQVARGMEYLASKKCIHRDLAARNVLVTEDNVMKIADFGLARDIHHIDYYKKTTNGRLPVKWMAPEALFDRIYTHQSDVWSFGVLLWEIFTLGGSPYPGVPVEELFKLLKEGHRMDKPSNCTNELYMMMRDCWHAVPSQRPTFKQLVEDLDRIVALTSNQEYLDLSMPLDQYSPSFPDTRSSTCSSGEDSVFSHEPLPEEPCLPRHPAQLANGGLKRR
T5 sequence (P15056 whole entry V600E): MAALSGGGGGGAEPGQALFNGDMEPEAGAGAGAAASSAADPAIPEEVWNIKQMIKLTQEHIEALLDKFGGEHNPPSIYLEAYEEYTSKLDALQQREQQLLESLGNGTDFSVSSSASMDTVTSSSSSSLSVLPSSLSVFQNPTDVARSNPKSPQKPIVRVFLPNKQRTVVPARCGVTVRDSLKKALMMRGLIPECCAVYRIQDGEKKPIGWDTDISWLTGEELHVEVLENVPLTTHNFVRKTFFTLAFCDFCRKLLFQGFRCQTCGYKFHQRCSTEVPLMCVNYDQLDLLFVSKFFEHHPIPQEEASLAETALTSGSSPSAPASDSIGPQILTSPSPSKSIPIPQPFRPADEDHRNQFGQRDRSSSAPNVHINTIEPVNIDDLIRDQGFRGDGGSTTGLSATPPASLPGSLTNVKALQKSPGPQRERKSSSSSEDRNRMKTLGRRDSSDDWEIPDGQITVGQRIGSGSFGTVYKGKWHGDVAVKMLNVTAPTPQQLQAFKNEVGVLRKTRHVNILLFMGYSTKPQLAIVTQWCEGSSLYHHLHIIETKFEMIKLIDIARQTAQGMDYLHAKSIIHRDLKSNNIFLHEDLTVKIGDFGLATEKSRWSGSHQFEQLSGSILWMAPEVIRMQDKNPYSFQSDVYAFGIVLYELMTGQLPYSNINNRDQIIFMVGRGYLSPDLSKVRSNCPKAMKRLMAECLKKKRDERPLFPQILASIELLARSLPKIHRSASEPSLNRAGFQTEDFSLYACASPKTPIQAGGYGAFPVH
T10 sequence (P50613 whole entry): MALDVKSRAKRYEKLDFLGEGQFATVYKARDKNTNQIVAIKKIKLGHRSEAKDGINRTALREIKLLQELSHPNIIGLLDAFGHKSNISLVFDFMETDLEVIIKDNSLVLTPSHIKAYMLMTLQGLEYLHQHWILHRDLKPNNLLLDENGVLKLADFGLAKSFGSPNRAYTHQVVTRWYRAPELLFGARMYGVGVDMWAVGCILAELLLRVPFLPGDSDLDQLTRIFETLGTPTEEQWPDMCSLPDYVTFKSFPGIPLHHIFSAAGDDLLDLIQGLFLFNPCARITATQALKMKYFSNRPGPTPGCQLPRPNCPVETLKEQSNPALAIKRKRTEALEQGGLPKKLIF
T16 sequence (Q9HBH9 whole entry): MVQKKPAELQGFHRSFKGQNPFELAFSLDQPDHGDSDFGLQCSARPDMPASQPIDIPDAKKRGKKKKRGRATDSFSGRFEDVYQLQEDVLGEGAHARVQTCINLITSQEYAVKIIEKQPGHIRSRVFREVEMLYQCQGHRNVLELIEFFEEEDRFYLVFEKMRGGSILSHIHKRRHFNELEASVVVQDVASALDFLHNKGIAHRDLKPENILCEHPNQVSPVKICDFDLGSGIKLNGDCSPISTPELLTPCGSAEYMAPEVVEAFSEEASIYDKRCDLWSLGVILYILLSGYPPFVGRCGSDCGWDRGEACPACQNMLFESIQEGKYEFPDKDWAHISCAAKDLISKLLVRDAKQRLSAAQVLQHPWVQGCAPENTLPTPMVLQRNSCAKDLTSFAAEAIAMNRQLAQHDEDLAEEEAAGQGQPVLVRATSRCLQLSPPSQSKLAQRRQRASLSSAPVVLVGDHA
T18 sequence (P29317 24-976): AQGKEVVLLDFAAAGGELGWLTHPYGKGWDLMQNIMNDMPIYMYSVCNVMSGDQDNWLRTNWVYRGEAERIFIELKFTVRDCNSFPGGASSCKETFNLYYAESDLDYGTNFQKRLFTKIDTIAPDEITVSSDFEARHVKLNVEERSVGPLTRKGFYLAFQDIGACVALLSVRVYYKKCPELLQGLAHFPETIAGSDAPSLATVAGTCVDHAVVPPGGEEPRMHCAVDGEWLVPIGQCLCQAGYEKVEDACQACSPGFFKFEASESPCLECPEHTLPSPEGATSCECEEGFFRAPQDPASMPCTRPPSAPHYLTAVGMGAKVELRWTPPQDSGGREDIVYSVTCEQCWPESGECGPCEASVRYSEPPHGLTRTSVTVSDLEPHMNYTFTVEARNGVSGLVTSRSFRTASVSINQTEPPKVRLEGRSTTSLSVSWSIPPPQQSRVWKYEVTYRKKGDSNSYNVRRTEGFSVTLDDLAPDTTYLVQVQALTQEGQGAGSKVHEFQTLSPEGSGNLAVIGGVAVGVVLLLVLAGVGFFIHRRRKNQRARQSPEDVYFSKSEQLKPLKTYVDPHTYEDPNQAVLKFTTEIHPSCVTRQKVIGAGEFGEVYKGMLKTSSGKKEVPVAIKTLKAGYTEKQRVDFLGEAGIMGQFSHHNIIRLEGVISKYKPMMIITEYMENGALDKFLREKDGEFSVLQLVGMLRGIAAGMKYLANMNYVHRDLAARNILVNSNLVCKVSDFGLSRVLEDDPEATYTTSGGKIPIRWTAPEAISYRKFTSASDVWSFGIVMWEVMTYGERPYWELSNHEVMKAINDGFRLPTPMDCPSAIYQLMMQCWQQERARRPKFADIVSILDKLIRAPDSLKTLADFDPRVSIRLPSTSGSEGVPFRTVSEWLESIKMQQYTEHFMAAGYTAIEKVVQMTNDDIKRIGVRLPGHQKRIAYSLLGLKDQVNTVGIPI
T15 sequence (P04049 whole entry, species assumed): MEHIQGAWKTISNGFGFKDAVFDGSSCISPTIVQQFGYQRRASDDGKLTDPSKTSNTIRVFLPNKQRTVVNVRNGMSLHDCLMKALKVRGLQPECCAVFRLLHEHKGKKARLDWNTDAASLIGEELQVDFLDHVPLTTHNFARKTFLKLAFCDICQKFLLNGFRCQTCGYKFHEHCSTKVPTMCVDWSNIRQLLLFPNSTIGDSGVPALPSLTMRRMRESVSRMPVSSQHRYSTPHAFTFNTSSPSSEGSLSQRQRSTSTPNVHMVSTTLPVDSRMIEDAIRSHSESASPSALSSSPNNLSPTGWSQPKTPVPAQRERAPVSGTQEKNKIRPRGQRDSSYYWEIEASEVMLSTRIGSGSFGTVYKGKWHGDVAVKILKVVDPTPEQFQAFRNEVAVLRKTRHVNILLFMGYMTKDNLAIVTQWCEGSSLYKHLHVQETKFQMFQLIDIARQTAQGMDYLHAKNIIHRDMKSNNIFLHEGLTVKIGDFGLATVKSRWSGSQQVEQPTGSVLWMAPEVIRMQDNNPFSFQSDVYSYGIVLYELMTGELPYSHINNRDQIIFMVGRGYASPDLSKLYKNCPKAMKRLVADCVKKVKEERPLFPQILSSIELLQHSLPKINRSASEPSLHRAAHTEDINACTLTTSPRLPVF
T6 sequence (P36896 24-505): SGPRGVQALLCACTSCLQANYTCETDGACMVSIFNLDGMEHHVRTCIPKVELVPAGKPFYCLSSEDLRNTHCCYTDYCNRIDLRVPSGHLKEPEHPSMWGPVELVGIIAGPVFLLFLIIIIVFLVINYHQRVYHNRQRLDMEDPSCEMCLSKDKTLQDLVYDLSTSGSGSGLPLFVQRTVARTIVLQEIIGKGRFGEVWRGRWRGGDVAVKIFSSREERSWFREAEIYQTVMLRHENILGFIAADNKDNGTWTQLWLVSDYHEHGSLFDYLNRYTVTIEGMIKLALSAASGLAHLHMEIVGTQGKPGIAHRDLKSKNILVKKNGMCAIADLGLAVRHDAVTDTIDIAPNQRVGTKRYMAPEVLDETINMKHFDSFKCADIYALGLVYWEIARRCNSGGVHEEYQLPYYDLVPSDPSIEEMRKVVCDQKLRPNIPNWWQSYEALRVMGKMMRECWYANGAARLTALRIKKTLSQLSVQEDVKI
T17 sequence (Q16539 whole entry): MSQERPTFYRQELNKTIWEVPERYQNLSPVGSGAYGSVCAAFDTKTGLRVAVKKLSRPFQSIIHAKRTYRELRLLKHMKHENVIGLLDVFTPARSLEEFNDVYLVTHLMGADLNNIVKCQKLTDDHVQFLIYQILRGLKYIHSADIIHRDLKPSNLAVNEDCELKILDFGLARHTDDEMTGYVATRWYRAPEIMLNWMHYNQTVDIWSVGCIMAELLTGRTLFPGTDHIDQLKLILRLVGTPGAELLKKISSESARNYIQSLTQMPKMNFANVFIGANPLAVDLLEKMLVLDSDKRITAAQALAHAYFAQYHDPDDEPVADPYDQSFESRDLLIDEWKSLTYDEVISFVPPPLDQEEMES
T7 sequence (P15056 whole entry): as the sequence (P15056 whole entry V600E) above, with E600V counted along it
Sequence of BRAF^V600E monomers in A375 cells (P15056 whole entry V600E): as the sequence (P15056 whole entry V600E) above
Procedure for BRAF^WT: as §1
Procedure for CRAF: as §2
Procedure for KIT: as §1
Procedure for PDFGRα: as §1

Regarding `Cc1ccc(C(=O)Nc2ccc(CNCCN3CCOCC3)c(C(F)(F)F)c2)cc1C#Cc1cnc2cccnn12` [PHI1], the “% Ctrl EPHA” value in the series on EPHA is 14 % Ctrl. The IC50 against ABL1 was determined as 8.4 ± 0.3 nM; on BRAF^V600E [2], 10 nM; against KIT, 548 ± 21 nM; at BRAF^WT it was 323 ± 35 nM; on FGFR1 [3] (100 μM ATP), 624 ± 25 nM; against PDFGRα it was 8.3 ± 1.5 nM. Moreover, on ABL1-nonphosphorylated, the “% Ctrl ABL1-nonphosphorylated” value is listed as 0 % Ctrl. Besides, the “% Ctrl ABL1-phosphorylated” value on ABL1-phosphorylated is 0.1 % Ctrl. Further, the “% Ctrl ABL1(T315I)-phosphorylated” value in [1] amounted to 3.5 % Ctrl. For the same molecule, the “% Ctrl ACVR1B” value on ACVR1B stood at 0.4 % Ctrl. For the same molecule, the “reduction of inhibitory activity on FGFR compared to Ponatinib” value on FGFR1 [3] (PHI1 versus Ponatinib) was determined as 43 fold. Moreover, the “ΔTm (CETSA)” value in series [4] was “+3.4 °C”.

`Cc1ccc(C(=O)Nc2ccc(CN3CCN(C)CC3)c(C(F)(F)F)c2)cc1C#Cc1cnc2cccnn12` [Ponatinib, 3-[2-(imidazo[1,2-b]pyridazin-3-yl)ethynyl]-4-methyl-N-{4-[(4-methylpiperazin-1-yl)methyl]-3-(trifluoromethyl)phenyl}benzamide]: the “% Ctrl CDK7” value on CDK7 was determined as 6.2 % Ctrl. The “% Ctrl CDK9” value at CDK9 is on record as 28 % Ctrl. The “inhibition of MEK phosphorylation by BRAF^V600E (in words)” value against BRAF^V600E [5] is reported as “potent inhibitor”. Moreover, on AXL, the “% Ctrl AXL” value was determined as 14 % Ctrl. At EGFR(L858R), the “% Ctrl EGFR(L858R)” value is on record as 19 % Ctrl. In addition, in series [6], the elimination half-life is over 24 h and the maximum plasma levels was ~ 100 nM. Further, the “% Ctrl TYK2(JH1domain-catalytic)” value in series [7] came out at 8.6 % Ctrl. Further, the “inhibition of CRAF kinase activity (in words)” value at CRAF is on record as “potently inhibited”. Further, the “% Ctrl FGFR1” value at FGFR1 [8] came to 0.15 % Ctrl. In addition, the “% Ctrl MKNK2” value at MKNK2 is on record as 0.6 % Ctrl. Further, the “% Ctrl p38-alpha” value at p38-alpha is reported as 0 % Ctrl. The “% Ctrl EPHA2” value at EPHA2 turned out to be 0 % Ctrl. Also, the “% Ctrl EGFR” value on EGFR was 15 % Ctrl. For the same molecule, the “% Ctrl JAK2(JH1domain-catalytic)” value in [9] is reported as 9.5 % Ctrl.
